Source: patent US20250215029A1 (Recludix Pharma, Inc., priority 2022, published 2025)
Where two headings read alike, the source gives them in different places.

Experiments:
[1] = target: T1, Recombinant STAT3 protein (STAT3 (G127-I722)) (Homo sapiens, UniProt P40763); test: STAT3 Fluorescence Polarization (FP) Assay; format: binding; conditions: probe 5-FAM-GpYLPQTV-NH2 2 nM, 45-minute incubation
T1 construct: Recombinant STAT3 protein (STAT3 (G127-I722))
How it was run: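 Displacement of a 2 nM 5-FAM-labelled pY peptide (GpYLPQTV) from 25 nM recombinant STAT3 (G127-I722) was monitored by fluorescence polarization. Incubation lasted 45 min at room temperature in pH 7.4 HEPES buffer containing 1% DMSO.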

[2] = target: T2, Recombinant STAT6 protein (STAT6 (W123-T658)) (Homo sapiens, UniProt P42226); test: STAT6 Fluorescence Polarization (FP) Assay; format: binding; conditions: 45-minute incubation
T2 construct: Recombinant STAT6 protein (STAT6 (W123-T658))
T2 sequence (P42226 123-658): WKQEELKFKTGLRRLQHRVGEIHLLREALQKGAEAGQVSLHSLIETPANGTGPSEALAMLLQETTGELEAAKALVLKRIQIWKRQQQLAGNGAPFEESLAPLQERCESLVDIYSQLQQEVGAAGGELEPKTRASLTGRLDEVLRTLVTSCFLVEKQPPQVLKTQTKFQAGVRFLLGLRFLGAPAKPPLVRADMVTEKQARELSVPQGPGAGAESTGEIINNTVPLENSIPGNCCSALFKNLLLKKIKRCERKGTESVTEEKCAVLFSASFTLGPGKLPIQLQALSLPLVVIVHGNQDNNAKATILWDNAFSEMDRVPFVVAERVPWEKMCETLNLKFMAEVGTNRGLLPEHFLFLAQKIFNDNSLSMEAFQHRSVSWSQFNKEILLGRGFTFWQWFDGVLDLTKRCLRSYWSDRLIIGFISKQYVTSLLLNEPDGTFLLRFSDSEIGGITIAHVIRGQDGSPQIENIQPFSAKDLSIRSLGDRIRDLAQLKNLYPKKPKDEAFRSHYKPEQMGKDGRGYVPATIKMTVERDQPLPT
How it was run: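 Competitive FP binding: recombinant STAT6 (W123-T658) at 250 nM, labeled phosphotyrosine peptide at 2 nM, compounds at 1% DMSO, 45 min at RT before reading. IC50 values were obtained from nonlinear regression of mP versus log concentration.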

[3] = STAT3 (G127-I722) 25 nM, read-out: STAT3 (FP assay IC50 class)
[4] = STAT6 (W123-T658) 250 nM, probe 5-FAM-Ap[…]-NH2 2 nM, read-out: STAT6 (FP assay IC50 class)

T1 sequence (P40763 127-722): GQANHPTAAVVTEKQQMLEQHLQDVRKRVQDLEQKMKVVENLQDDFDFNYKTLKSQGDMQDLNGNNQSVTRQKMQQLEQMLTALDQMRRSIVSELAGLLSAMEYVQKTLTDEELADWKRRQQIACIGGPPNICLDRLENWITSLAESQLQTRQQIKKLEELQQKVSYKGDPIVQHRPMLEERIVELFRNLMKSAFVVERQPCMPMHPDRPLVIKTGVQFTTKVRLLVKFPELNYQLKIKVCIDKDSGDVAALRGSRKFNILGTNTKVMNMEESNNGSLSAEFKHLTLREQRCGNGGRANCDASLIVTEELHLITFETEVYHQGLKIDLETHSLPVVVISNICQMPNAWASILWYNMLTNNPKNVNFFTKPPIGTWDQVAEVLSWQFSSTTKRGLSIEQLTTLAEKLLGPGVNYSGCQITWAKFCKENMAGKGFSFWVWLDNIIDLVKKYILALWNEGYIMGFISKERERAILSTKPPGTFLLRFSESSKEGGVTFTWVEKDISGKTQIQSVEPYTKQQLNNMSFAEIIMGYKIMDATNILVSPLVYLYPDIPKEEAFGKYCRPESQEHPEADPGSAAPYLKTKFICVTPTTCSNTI

Row | Compound | IC50 [1, 3] [nM] | IC50 [2, 4] [nM] | IC50 ([1]; STAT3 25 nM, read-out: STAT3 (FP assay IC50)) [nM] | IC50 ([2]; STAT6 250 nM, probe 5-FAM-Ap[…]-NH2 2 nM, read-out: STAT6 (FP assay IC50)) [nM] | IC50 ([2]; STAT6 (W123-T658) 250 nM, probe 5-FAM-ApYKPFQDLI-NH2 2 nM, read-out: STAT6 (FP assay IC50 class)) [nM]
1 | O=C(N[C@H]1CCCC[C@H]2CC[C@@H](C(=O)N[C@@H]3CCN(c4ccn[nH]4)C3)N2C1=O)c1cc2cc(C(F)P(=O)(O)O)ccc2s1 (stereo partly drawn) [Compound 559, ((2-(((3S,6S,10aS)-3-(((R)-1-(1H-pyrazol-5-yl)pyrrolidin-3-yl)carbamoyl)-5-oxodecahydropyrrolo[1,2-a]azocin-6-yl)carbamoyl)benzo[b]thiophen-5-yl)fluoromethyl)phosphonic acid] | 1000 to 10000 | 300 to 3000 | – | – | –
2 | O=C(N[C@H]1CCCC[C@H]2CC[C@@H](C(=O)N3CC(F)(c4ccccc4F)C3)N2C1=O)c1cc2cc(C(F)(F)P(=O)(O)O)ccc2s1 [Compound 54, (difluoro(2-(((3S,6S,10aS)-3-(3-fluoro-3-(2-fluorophenyl)azetidine-1-carbonyl)-5-oxodecahydropyrrolo [1,2-a]azocin-6-yl)carbamoyl)benzo[b]thiophen-5-yl)methyl) phosphonic acid] | – | – | < 100 | 300 to 3000 | –
3 | O=C(N[C@H]1CCC[C@H]2CC[C@@H](C(=O)N3CC(C4=CCOCC4)C3)N2C1=O)c1cc2cc(CP(=O)(O)O)ccc2s1 [Compound 697, ((2-(((3S,6S,9aS)-3-(3-(3,6-dihydro-2H-pyran-4-yl)azetidine-1-carbonyl)-5-oxooctahydro-1H-pyrrolo[1,2-a]azepin-6-yl)carbamoyl)benzo [b]thiophen-5-yl)methyl) phosphonic acid] | 1000 to 10000 | 3000 to 30000 | – | – | –
4 | N#C[C@@H]1[C@@H](c2ccccc2)CN(C(=O)[C@@H]2CC[C@@H]3CCCC[C@H](NC(=O)c4cc5cc([C@H](F)P(=O)(O)O)ccc5s4)C(=O)N32)C12CC2 (single isomer, unassigned) [Compound 835] | 1000 to 10000 | ≤ 300 | – | – | –
5 | O=C(N[C@H]1CCCC[C@H]2CC[C@@H](C(=O)N3CCC(c4ccccc4F)C3)N2C1=O)c1cc2cc(C(F)P(=O)(O)O)ccc2s1 (stereo partly drawn) [Compound 563, (fluoro(2-(((3S,6S,10aS)-3-(3-(2-fluorophenyl)pyrrolidine-1-carbonyl)-5-oxodecahydropyrrolo[1,2-a]azocin-6-yl)carbamoyl)benzo[b]thiophen-5-yl)methyl)phosphonic acid] | 1000 to 10000 | 300 to 3000 | – | – | –
6 | N#C[C@@H]1[C@@H](c2ccccc2)CN(C(=O)[C@@H]2CC[C@@H]3CCC[C@H](NC(=O)c4cc5cc([C@@H](F)P(=O)(O)O)ccc5s4)C(=O)N32)C12CC2 (single isomer, unassigned) [Compound 920] | 1000 to 10000 | ≤ 300 | – | – | –
7 | N#C[C@H]1CN(C(=O)[C@@H]2CCC[C@@H]3CCCC[C@H](NC(=O)c4cc5cc(C(F)P(=O)(O)O)ccc5s4)C(=O)N32)C[C@@H]1c1ccccc1 (relative stereo) [Compound 552, ((2-(((4S,7S,11aS)-4-((rel-trans)-3-cyano-4-phenylpyrrolidine-1-carbonyl)-6-oxodecahydro-2H-pyrido[1,2-a]azocin-7-yl)carbamoyl)benzo[b]thiophen-5-yl)fluoromethyl)phosphonic acid] | 1000 to 10000 | ≤ 300 | – | – | –
8 | Cc1ccncc1C1CN(C(=O)[C@@H]2CC[C@@H]3CCC[C@H](NC(=O)c4cc5cc(C(F)(F)P(=O)(O)O)ccc5s4)C(=O)N32)C1 [Compound 783, (difluoro(2-(((3S,6S,9aS)-3-(3-(4-methylpyridin-3-yl)azetidine-1-carbonyl)-5-oxooctahydro-1H-pyrrolo[1,2-a]azepin-6-yl)carbamoyl)benzo [b]thiophen-5-yl)methyl) phosphonic acid] | > 10000 | > 30000 | – | – | –
9 | O=C(N[C@H]1CCC[C@H]2CC[C@@H](C(=O)N3CC(c4cnccc4C(F)F)C3)N2C1=O)c1cc2cc(C(F)(F)P(=O)(O)O)ccc2s1 [Compound 819, ((2-(((3S,6S,9aS)-3-(3-(4-(difluoromethyl)pyridin-3-yl)azetidine-1-carbonyl)-5-oxooctahydro-1H-pyrrolo[1,2-a]azepin-6-yl)carbamoyl)benzo [b]thiophen-5-yl)difluoromethyl) phosphonic acid] | 100 to 1000 | 300 to 3000 | – | – | –
10 | N#C[C@@H]1CN(C(=O)[C@@H]2CC[C@@H]3CCCC[C@H](NC(=O)c4cc5cc(C(F)(F)P(=O)(O)O)ccc5s4)C(=O)N32)C[C@H]1c1cccc(=O)[nH]1 (relative stereo) [Compound 867, ((2-(((3S,6S,10aS)-3-((rel-trans)-3-cyano-4-(6-oxo-1,6-dihydropyridin-2-yl)pyrrolidine-1-carbonyl)-5-oxodecahydropyrrolo [1,2-a]azocin-6-yl)carbamoyl)benzo [b]thiophen-5-yl)difluoromethyl) phosphonic acid] | 100 to 1000 | – | – | – | ≤ 300
11 | COc1cncc([C@H]2CN(C(=O)[C@@H]3CC[C@@H]4CCC[C@H](NC(=O)c5cc6cc([C@@H](F)P(=O)(O)O)ccc6s5)C(=O)N43)C3(CC3)[C@@H]2C#N)c1 (single isomer, unassigned) [Compound 844] | 1000 to 10000 | 300 to 3000 | – | – | –

The next lines start with results.

Row | IC50 [1, 3] [nM] | IC50 [2, 4] [nM] | IC50 ([1]; STAT3 25 nM, read-out: STAT3 (FP assay IC50)) [nM] | IC50 ([2]; STAT6 250 nM, probe 5-FAM-Ap[…]-NH2 2 nM, read-out: STAT6 (FP assay IC50)) [nM] | Compound | IC50 ([2]; STAT6 (W123-T658) 250 nM, probe 5-FAM-ApYKPFQDLI-NH2 2 nM, read-out: STAT6 (FP assay IC50 class)) [nM]
12 | < 100 | 3000 to 30000 | – | – | C[C@H]1C[C@H]2CC[C@@H](C(=O)N3CC(c4cnccc4N(C)C)C3)N2C(=O)[C@@H](NC(=O)c2cc3cc([C@H](F)P(=O)(O)O)ccc3s2)C1 [Compound 736, ((R)-(2-(((3S,6S,8R,9aR)-3-(3-(4-(dimethylamino)pyridin-3-yl)azetidine-1-carbonyl)-8-methyl-5-oxooctahydro-1H-pyrrolo[1,2-a]azepin-6-yl)carbamoyl)benzo [b]thiophen-5-yl)fluoromethyl) phosphonic acid] | –
13 | < 100 | 3000 to 30000 | – | – | CN(C)c1ncncc1C1CN(C(=O)[C@@H]2CC[C@@H]3CCC[C@H](NC(=O)c4cc5cc([C@H](F)P(=O)(O)O)ccc5s4)C(=O)N32)C1 (single isomer, unassigned) [Compound 665] | –
14 | < 100 | 3000 to 30000 | – | – | C[C@@H]1CC[C@H](NC(=O)c2cc3cc(CP(=O)(O)O)ccc3s2)C(=O)N2[C@H](CC[C@H]2C(=O)N2CC(c3cnccc3F)C2)C1 [Compound 603, ((2-(((3S,6S,9R,10aR)-3-(3-(4-fluoropyridin-3-yl)azetidine-1-carbonyl)-9-methyl-5-oxodecahydropyrrolo [1,2-a]azocin-6-yl)carbamoyl)benzo [b]thiophen-5-yl)methyl) phosphonic acid] | –
15 | < 100 | 3000 to 30000 | – | – | Cc1ccncc1C1CN(C(=O)[C@@H]2CC[C@@H]3C[C@H](C)C[C@H](NC(=O)c4cc5cc([C@@H](F)P(=O)(O)O)ccc5s4)C(=O)N32)C1 (single isomer, unassigned) [Compound 753] | –
16 | 100 to 1000 | 3000 to 30000 | – | – | CCc1ccncc1C1CN(C(=O)[C@@H]2CC[C@@H]3CCC[C@H](NC(=O)c4ccc5cc(CP(=O)(O)O)sc5c4)C(=O)N32)C1 [Compound 550, ((6-(((3S,6S,9aS)-3-(3-(4-ethylpyridin-3-yl)azetidine-1-carbonyl)-5-oxooctahydro-1H-pyrrolo[1,2-a]azepin-6-yl)carbamoyl)benzo[b]thiophen-2-yl)methyl)phosphonic acid] | –
17 | 100 to 1000 | 3000 to 30000 | – | – | COc1c(C2CN(C(=O)[C@@H]3CC[C@@H]4CCC[C@H](NC(=O)c5cc6cc(C(F)P(=O)(O)O)ccc6s5)C(=O)N43)C2)cnn1C (stereo partly drawn) [Compound 629, (fluoro(2-(((3S,6S,9aS)-3-(3-(5-methoxy-1-methyl-1H-pyrazol-4-yl)azetidine-1-carbonyl)-5-oxooctahydro-1H-pyrrolo[1,2-a]azepin-6-yl)carbamoyl)benzo [b]thiophen-5-yl)methyl) phosphonic acid] | –
